Converted amounts (≈) assume the structure as drawn.
Legend:
[1] = tested on: Staphylococcus epidermidis; assay: Antibacterial activity against methicillin-sensitive Staphylococcus epidermidis ATCC 12228 after 18 hrs by CLSI broth microdilution method; type: functional; conditions: ATCC 12228, 18 h
[2] = tested on: Staphylococcus epidermidis; assay: Antibacterial activity against methicillin-resistant Staphylococcus epidermidis 12-8 after 18 hrs by CLSI broth microdilution method; type: functional; conditions: 12-8, 18 h
Staphylococcus aureus [3] = assay: Antibacterial activity against methicillin-sensitive Staphylococcus aureus ATCC 29213 after 18 hrs by CLSI broth microdilution method; type: functional; conditions: ATCC 29213, 18 h
Staphylococcus aureus [4] = assay: Antibacterial activity against methicillin-resistant Staphylococcus aureus 12-33 after 18 hrs by CLSI broth microdilution method; type: functional; conditions: 12-33, 18 h
Enterococcus faecalis [5] = assay: Antibacterial activity against vancomycin-sensitive Enterococcus faecalis ATCC 29212 after 18 hrs by CLSI broth microdilution method; type: functional; conditions: ATCC 29212, 18 h
Enterococcus faecalis [6] = assay: Antibacterial activity against vancomycin-resistant Enterococcus faecalis 09-9 after 18 hrs by CLSI broth microdilution method; type: functional; conditions: 09-9, 18 h
Enterococcus faecium [7] = assay: Antibacterial activity against vancomycin-resistant Enterococcus faecium ATCC 700221 after 18 hrs by CLSI broth microdilution method; type: functional; conditions: ATCC 700221, 18 h
Enterococcus faecium [8] = assay: Antibacterial activity against vancomycin-sensitive Enterococcus faecium 12-3 after 18 hrs by CLSI broth microdilution method; type: functional; conditions: 12-3, 18 h
Escherichia coli [9] = assay: Antibacterial activity against extended-spectrum beta-lactamase deficient Escherichia coli ATCC 25922 after 18 hrs by CLSI broth microdilution method; type: functional; conditions: ATCC 25922, 18 h
Escherichia coli [10] = assay: Antibacterial activity against extended-spectrum beta-lactamase harboring Escherichia coli 12-15 after 18 hrs by CLSI broth microdilution method; type: functional; conditions: 12-15, 18 h
Klebsiella pneumoniae [11] = assay: Antibacterial activity against extended-spectrum beta-lactamase harboring Klebsiella pneumoniae ATCC 700603 after 18 hrs by CLSI broth microdilution method; type: functional; conditions: Klebsiella pneumoniae, 700603, 18 h
Klebsiella pneumoniae [12] = assay: Antibacterial activity against new delhi metallo-beta-lactamase-1 harboring Klebsiella pneumoniae ATCC BAA-2146 after 18 hrs by CLSI broth microdilution method; type: functional; conditions: ATCC BAA-2146, 18 h
Klebsiella pneumoniae [13] = assay: Antibacterial activity against extended-spectrum beta-lactamase harboring Klebsiella pneumoniae 12-8 after 18 hrs by CLSI broth microdilution method; type: functional; conditions: 12-8, 18 h
Pseudomonas aeruginosa [14] = assay: Antibacterial activity against Pseudomonas aeruginosa ATCC 27853 after 18 hrs by CLSI broth microdilution method; type: functional; conditions: ATCC 27853, 18 h
[15] = tested on: Acinetobacter calcoaceticus; assay: Antibacterial activity against Acinetobacter calcoaceticus ATCC 19606 after 18 hrs by CLSI broth microdilution method; type: functional; conditions: ATCC 19606, 18 h
Enterobacter cloacae = assay: Antibacterial activity against Enterobacter cloacae ATCC 43560 after 18 hrs by CLSI broth microdilution method; type: functional; conditions: ATCC 43560, 18 h
Proteus mirabilis = assay: Antibacterial activity against Proteus mirabilis 12-6 after 18 hrs by CLSI broth microdilution method; type: functional; conditions: 12-6, 18 h
[16] = Cytotoxicity against HEK293T cells assessed as reduction in cell viability after 48 hrs by MTS assay; type: cell-based, HEK-293T; conditions: human
[17] = tested on: Staphylococcus epidermidis; assay: Antibacterial activity against methicillin-sensitive Staphylococcus epidermidis 12-6 after 18 hrs by CLSI broth microdilution method; type: functional; conditions: 12-6, 18 h
Staphylococcus aureus [18] = assay: Antibacterial activity against methicillin-resistant Staphylococcus aureus ATCC 33591 after 18 hrs by CLSI broth microdilution method; type: functional; conditions: ATCC 33591, 18 h
Staphylococcus aureus [19] = assay: Antibacterial activity against methicillin-sensitive Staphylococcus aureus 15 after 18 hrs by CLSI broth microdilution method; type: functional; conditions: Staphylococcus aureus, 15, 18 h
Staphylococcus aureus [20] = assay: Antibacterial activity against methicillin-sensitive Staphylococcus aureus 12-28 after 18 hrs by CLSI broth microdilution method; type: functional; conditions: 12-28, 18 h
Enterococcus faecalis [21] = assay: Antibacterial activity against vancomycin-resistant Enterococcus faecalis ATCC 51299 after 18 hrs by CLSI broth microdilution method; type: functional; conditions: ATCC 51299, 18 h
Enterococcus faecalis [22] = assay: Antibacterial activity against vancomycin-sensitive Enterococcus faecalis 12-5 after 18 hrs by CLSI broth microdilution method; type: functional; conditions: 12-5, 18 h
Enterococcus faecium [23] = assay: Antibacterial activity against vancomycin-resistant Enterococcus faecium 12-1 after 18 hrs by CLSI broth microdilution method; type: functional; conditions: 12-1, 18 h
Escherichia coli [24] = assay: Antibacterial activity against extended-spectrum beta-lactamase deficient Escherichia coli 1515 after 18 hrs by CLSI broth microdilution method; type: functional; conditions: Escherichia coli, 1515, 18 h
Escherichia coli [25] = assay: Antibacterial activity against extended-spectrum beta-lactamase deficient Escherichia coli 12-14 after 18 hrs by CLSI broth microdilution method; type: functional; conditions: 12-14, 18 h
Klebsiella pneumoniae [26] = assay: Antibacterial activity against extended-spectrum beta-lactamase deficient Klebsiella pneumoniae 7 after 18 hrs by CLSI broth microdilution method; type: functional; conditions: Klebsiella pneumoniae, 7, 18 h
Klebsiella pneumoniae [27] = assay: Antibacterial activity against extended-spectrum beta-lactamase deficient Klebsiella pneumoniae 12-4 after 18 hrs by CLSI broth microdilution method; type: functional; conditions: 12-4, 18 h
Pseudomonas aeruginosa [28] = assay: Antibacterial activity against Pseudomonas aeruginosa PAO1 after 18 hrs by CLSI broth microdilution method; type: functional; conditions: PAO1, 18 h
Pseudomonas aeruginosa [29] = assay: Antibacterial activity against Pseudomonas aeruginosa 12-16 after 18 hrs by CLSI broth microdilution method; type: functional; conditions: 12-16, 18 h
Klebsiella aerogenes = assay: Antibacterial activity against Enterobacter aerogenes ATCC 13048 after 18 hrs by CLSI broth microdilution method; type: functional; conditions: ATCC 13048, 18 h
Serratia marcescens = assay: Antibacterial activity against Serratia marcescens ATCC 21074 after 18 hrs by CLSI broth microdilution method; type: functional; conditions: ATCC 21074, 18 h
Providencia rettgeri = assay: Antibacterial activity against Providencia rettgeri ATCC 31052 after 18 hrs by CLSI broth microdilution method; type: functional; conditions: ATCC 31052, 18 h
Proteus vulgaris = assay: Antibacterial activity against Proteus vulgaris ATCC 29905 after 18 hrs by CLSI broth microdilution method; type: functional; conditions: ATCC 29905, 18 h
[30] = tested on: Stenotrophomonas maltophilia; assay: Antibacterial activity against Stenotrophomonas maltophilia ATCC 13636 after 18 hrs by CLSI broth microdilution method; type: functional; conditions: ATCC 13636, 18 h
Citrobacter freundii = assay: Antibacterial activity against Citrobacter freundii ATCC 43864 after 18 hrs by CLSI broth microdilution method; type: functional; conditions: ATCC 43864, 18 h

Row | Structure (SMILES) | MIC [1] [µg/mL] | MIC [2] [µg/mL] | MIC (Staphylococcus aureus [3]) [µg/mL] | MIC (Staphylococcus aureus [4]) [µg/mL] | MIC (Enterococcus faecalis [5]) [µg/mL] | MIC (Enterococcus faecalis [6]) [µg/mL] | MIC (Enterococcus faecium [7]) [µg/mL] | MIC (Enterococcus faecium [8]) [µg/mL] | MIC (Escherichia coli [9]) [µg/mL] | MIC (Escherichia coli [10]) [µg/mL] | MIC (Klebsiella pneumoniae [11]) [µg/mL] | MIC (Klebsiella pneumoniae [12]) [µg/mL] | MIC (Klebsiella pneumoniae [13]) [µg/mL] | MIC (Pseudomonas aeruginosa [14]) [µg/mL] | MIC [15] [µg/mL] | MIC (Enterobacter cloacae) [µg/mL] | MIC (Proteus mirabilis) [µg/mL] | MIC [17] [µg/mL] | MIC (Staphylococcus aureus [18]) [µg/mL] | MIC (Staphylococcus aureus [19]) [µg/mL] | further results
1 | N=C(c1ccc2cc(-c3ccc(-c4cc5ccc(C(=N)N6CCC6)cc5[nH]4)cc3)[nH]c2c1)N1CCC1 | 0.125 (≈ 0.264 µM) | 0.125 (≈ 0.264 µM) | 2 (≈ 4.23 µM) | 4 (≈ 8.46 µM) | 4 (≈ 8.46 µM) | 1 (≈ 2.12 µM) | 1 (≈ 2.12 µM) | 2 (≈ 4.23 µM) | 1 (≈ 2.12 µM) | 2 (≈ 4.23 µM) | 32 (≈ 67.7 µM) | 16 (≈ 33.9 µM) | 32 (≈ 67.7 µM) | 64 (≈ 135 µM) | 32 (≈ 67.7 µM) | 8 (≈ 16.9 µM) | 16 (≈ 33.9 µM) | 0.125 (≈ 0.264 µM) | 1 (≈ 2.12 µM) | 2 (≈ 4.23 µM) | CC50 at 48 h [16]: 2.84 µg/mL (≈ 6.01 µM); MIC (Staphylococcus aureus [20]): 2 µg/mL (≈ 4.23 µM); MIC (Enterococcus faecalis [21]): 2 µg/mL (≈ 4.23 µM); MIC (Enterococcus faecalis [22]): 4 µg/mL (≈ 8.46 µM); MIC (Enterococcus faecium [23]): 1 µg/mL (≈ 2.12 µM); MIC (Escherichia coli [24]): 2 µg/mL (≈ 4.23 µM); MIC (Escherichia coli [25]): 2 µg/mL (≈ 4.23 µM); MIC (Klebsiella pneumoniae [26]): 16 µg/mL (≈ 33.9 µM); MIC (Klebsiella pneumoniae [27]): 8 µg/mL (≈ 16.9 µM); MIC (Pseudomonas aeruginosa [28]): 128 µg/mL (≈ 271 µM); MIC (Pseudomonas aeruginosa [29]): 128 µg/mL (≈ 271 µM); MIC (Klebsiella aerogenes): 4 µg/mL (≈ 8.46 µM); MIC (Serratia marcescens): 32 µg/mL (≈ 67.7 µM); MIC (Providencia rettgeri): 8 µg/mL (≈ 16.9 µM); MIC (Proteus vulgaris): 32 µg/mL (≈ 67.7 µM); MIC [30]: 8 µg/mL (≈ 16.9 µM); MIC (Citrobacter freundii): 4 µg/mL (≈ 8.46 µM)
2 | N=C(c1ccc2cc(-c3ccc(-c4cc5ccc(C(=N)N6CCCC6)cc5[nH]4)cc3)[nH]c2c1)N1CCCC1 | 0.25 (≈ 0.499 µM) | 1 (≈ 2 µM) | 2 (≈ 3.99 µM) | 2 (≈ 3.99 µM) | 4 (≈ 7.99 µM) | 4 (≈ 7.99 µM) | 4 (≈ 7.99 µM) | 4 (≈ 7.99 µM) | 4 (≈ 7.99 µM) | 4 (≈ 7.99 µM) | 16 (≈ 32 µM) | 8 (≈ 16 µM) | 8 (≈ 16 µM) | > 128 | 16 (≈ 32 µM) | 8 (≈ 16 µM) | 8 (≈ 16 µM) | 0.25 (≈ 0.499 µM) | 2 (≈ 3.99 µM) | 2 (≈ 3.99 µM) | CC50 at 48 h [16]: 4.15 µg/mL (≈ 8.29 µM); MIC (Staphylococcus aureus [20]): 2 µg/mL (≈ 3.99 µM); MIC (Enterococcus faecalis [21]): 8 µg/mL (≈ 16 µM); MIC (Enterococcus faecalis [22]): 4 µg/mL (≈ 7.99 µM); MIC (Enterococcus faecium [23]): 4 µg/mL (≈ 7.99 µM); MIC (Escherichia coli [24]): 4 µg/mL (≈ 7.99 µM); MIC (Escherichia coli [25]): 4 µg/mL (≈ 7.99 µM); MIC (Klebsiella pneumoniae [26]): 8 µg/mL (≈ 16 µM); MIC (Klebsiella pneumoniae [27]): 8 µg/mL (≈ 16 µM); MIC (Pseudomonas aeruginosa [28]): > 128 µg/mL; MIC (Pseudomonas aeruginosa [29]): 64 µg/mL (≈ 128 µM); MIC (Klebsiella aerogenes): 8 µg/mL (≈ 16 µM); MIC (Serratia marcescens): 64 µg/mL (≈ 128 µM); MIC (Providencia rettgeri): 8 µg/mL (≈ 16 µM); MIC (Proteus vulgaris): 8 µg/mL (≈ 16 µM); MIC [30]: 16 µg/mL (≈ 32 µM); MIC (Citrobacter freundii): 8 µg/mL (≈ 16 µM)
3 | CN(C)C(=N)c1ccc2cc(-c3ccc(Oc4ccc(-c5cc6ccc(C(=N)N(C)C)cc6[nH]5)cc4)cc3)[nH]c2c1 | 0.125 (≈ 0.231 µM) | 0.25 (≈ 0.462 µM) | 0.25 (≈ 0.462 µM) | 0.25 (≈ 0.462 µM) | 0.5 (≈ 0.925 µM) | 2 (≈ 3.7 µM) | 2 (≈ 3.7 µM) | 2 (≈ 3.7 µM) | 4 (≈ 7.4 µM) | 8 (≈ 14.8 µM) | 8 (≈ 14.8 µM) | 8 (≈ 14.8 µM) | 8 (≈ 14.8 µM) | 128 (≈ 237 µM) | > 128 | 64 (≈ 118 µM) | 32 (≈ 59.2 µM) | 0.25 (≈ 0.462 µM) | 0.25 (≈ 0.462 µM) | 0.25 (≈ 0.462 µM) | MIC (Staphylococcus aureus [20]): 0.25 µg/mL (≈ 0.462 µM); MIC (Enterococcus faecalis [21]): 1 µg/mL (≈ 1.85 µM); MIC (Enterococcus faecalis [22]): 2 µg/mL (≈ 3.7 µM); MIC (Enterococcus faecium [23]): 2 µg/mL (≈ 3.7 µM); MIC (Escherichia coli [24]): 4 µg/mL (≈ 7.4 µM); MIC (Escherichia coli [25]): 8 µg/mL (≈ 14.8 µM); MIC (Klebsiella pneumoniae [26]): 8 µg/mL (≈ 14.8 µM); MIC (Klebsiella pneumoniae [27]): 8 µg/mL (≈ 14.8 µM); MIC (Pseudomonas aeruginosa [28]): > 128 µg/mL; MIC (Pseudomonas aeruginosa [29]): > 128 µg/mL; MIC (Klebsiella aerogenes): 8 µg/mL (≈ 14.8 µM); MIC (Serratia marcescens): 32 µg/mL (≈ 59.2 µM); MIC (Providencia rettgeri): 8 µg/mL (≈ 14.8 µM); MIC (Proteus vulgaris): 8 µg/mL (≈ 14.8 µM); MIC [30]: 16 µg/mL (≈ 29.6 µM); MIC (Citrobacter freundii): 8 µg/mL (≈ 14.8 µM)
